The values below come from patent publication US12448395B2 (BRISTOL-MYERS SQUIBB COMPANY, priority 2019, dated 2025).

This experiment has as its target T1, human TLR9 (Homo sapiens, UniProt Q9NR96).
T1 sequence (Q9NR96 26-1032): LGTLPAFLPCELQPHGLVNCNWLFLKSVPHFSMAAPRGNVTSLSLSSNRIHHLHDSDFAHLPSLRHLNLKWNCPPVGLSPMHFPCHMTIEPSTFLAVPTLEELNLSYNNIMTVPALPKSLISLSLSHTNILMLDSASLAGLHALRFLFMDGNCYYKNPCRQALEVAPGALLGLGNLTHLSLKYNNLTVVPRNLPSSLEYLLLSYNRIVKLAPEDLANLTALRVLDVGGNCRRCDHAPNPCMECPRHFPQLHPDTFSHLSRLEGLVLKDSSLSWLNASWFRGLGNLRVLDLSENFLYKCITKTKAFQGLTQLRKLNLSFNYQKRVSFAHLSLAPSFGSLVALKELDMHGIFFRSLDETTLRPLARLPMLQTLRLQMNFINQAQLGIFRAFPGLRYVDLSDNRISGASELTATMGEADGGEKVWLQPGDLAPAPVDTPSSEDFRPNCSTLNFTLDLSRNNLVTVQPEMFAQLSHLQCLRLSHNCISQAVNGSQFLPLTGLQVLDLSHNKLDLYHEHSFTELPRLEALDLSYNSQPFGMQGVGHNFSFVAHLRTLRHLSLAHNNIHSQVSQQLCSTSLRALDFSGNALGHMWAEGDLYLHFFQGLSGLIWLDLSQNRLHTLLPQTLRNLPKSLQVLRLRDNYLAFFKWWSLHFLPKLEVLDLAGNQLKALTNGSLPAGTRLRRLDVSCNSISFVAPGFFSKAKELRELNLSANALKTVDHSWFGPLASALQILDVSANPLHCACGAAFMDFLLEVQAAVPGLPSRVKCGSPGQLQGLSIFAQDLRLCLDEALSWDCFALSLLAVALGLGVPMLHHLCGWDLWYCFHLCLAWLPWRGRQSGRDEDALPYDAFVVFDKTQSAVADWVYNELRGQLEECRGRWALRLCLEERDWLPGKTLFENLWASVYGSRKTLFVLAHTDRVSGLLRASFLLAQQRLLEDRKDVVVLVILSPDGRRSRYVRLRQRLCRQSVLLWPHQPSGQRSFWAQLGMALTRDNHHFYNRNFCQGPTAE
The experiment can be described thus: TLR9 inhibition reporter assay (HEK-Blue SEAP, ODN2006 stimulation). The class given is cell-based. Particulars: HEK-Blue cells overexpressing human TLR9, ODN2006 5 nM. As for the experimental part:
TLR7/8/9 Inhibition Reporter Assays
HEK-Blue™-cells (Invivogen) overexpressing human TLR7, TLR8 or TLR9 receptors were used for screening inhibitors of these receptors using an inducible SEAP (secreted embryonic alkaline phosphatase) reporter gene under the control of the IFN-β minimal promoter fused to five NF-κB and AP-1-binding sites. Briefly, cells are seeded into Greiner 384 well plates (15000 cells per well for TLR7, 20,000 for TLR8 and 25,000 for TLR9) and then treated with test compounds in DMSO to yield a final dose response concentration range of 0.05 nM-50 μM. After a 30 minute compound pre-treatment at room temperature, the cells are then stimulated with a TLR7 ligand (gardiquimod at a final concentration of 7.5 μM), TLR8 ligand (R848 at a final concentration of 15.9 μM) or TLR9 ligand (ODN2006 at a final concentration of 5 nM) to activate NF-κB and AP-1 which induce the production of SEAP. After a 22 hour incubation at 37° C., 5% CO2, SEAP levels are determined with the addition of HEK-Blue™ Detection reagent (Invivogen), a cell culture medium that allows for detection of SEAP, according to manufacturer's specifications. The percent inhibition is determined as the % reduction in the HEK-Blue signal present in wells treated with agonist plus DMSO alone compared to wells treated with a known inhibitor.
For orientation: Reporter assays use an easily measured gene product as a stand-in for the process of interest.

SMILES strings stand for the structures. A value given as a limit tells only on which side of the number the result lay.

One may read the IC50 as the concentration at which inhibition is half-maximal. `Cc1c(-c2[nH]c3sc(N4CCN(CC(=O)N(C)C)CC4)nc3c2C(C)C)cn2ncnc2c1C` [Example 283, 2-(4-(5-(7,8-dimethyl-[1,2,4]triazolo[1,5-a]pyridin-6-yl)-6-isopropyl-4H-pyrrolo[3,2-d]thiazol-2-yl)piperazin-1-yl)-N,N-dimethylacetamide] gave an IC50 above 50 µM.

Turning to `COC1CN(C(=O)c2nc3c(C(C)C)c(-c4cc(C)c5ncnn5c4)[nH]c3s2)C1` [Example 396, (6-isopropyl-5-(8-methyl-[1,2,4]triazolo[1,5-a]pyridin-6-yl)-4H-pyrrolo[3,2-d]thiazol-2-yl)(3-methoxyazetidin-1-yl)methanone], the IC50 is above 50 µM. The compound `Cc1c(-c2[nH]c3sc(N4CCN(C5CCC5)C[C@@H]4C)nc3c2C(C)C)cn2ncnc2c1C` [Example 349] returned an IC50 above 50 µM. Then `Cc1c(-c2[nH]c3sc(C4CCN(C5COC5)CC4)nc3c2C(C)C)cn(C)c(=O)c1C` [Example 60, 5-(6-isopropyl-2-(1-(oxetan-3-yl)piperidin-4-yl)-4H-pyrrolo[3,2-d]thiazol-5-yl)-1,3,4-trimethylpyridin-2 (1H)-one], with above 50 µM. `Cc1cc(-c2[nH]c3sc(C(=O)N4CCCC4)nc3c2C(C)C)cn2ncnc12` [Example 393, (6-isopropyl-5-(8-methyl-[1,2,4]triazolo[1,5-a]pyridin-6-yl)-4H-pyrrolo[3,2-d]thiazol-2-yl)(pyrrolidin-1-yl) methanone] had an IC50 above 50 µM. For the compound `Cc1c(-c2[nH]c3sc(N4C[C@@H](C)N(CC(=O)N(C)C)C[C@@H]4C)nc3c2C(C)C)cn2ncnc2c1C` [Example 335, 2-((2R,5S)-4-(5-(7,8-dimethyl-[1,2,4]triazolo[1,5-a]pyridin-6-yl)-6-isopropyl-4H-pyrrolo[3,2-d]thiazol-2-yl)-2,5-dimethylpiperazin-1-yl)-N,N-dimethylacetamide], the IC50 was above 50 µM.

With `Cc1c(-c2[nH]c3sc(N4CCN(CC(=O)N(C)C)C[C@H]4C)nc3c2C(C)C)cn2ncnc2c1C` [Example 312, (R)-2-(4-(5-(7,8-dimethyl-[1,2,4]triazolo[1,5-a]pyridin-6-yl)-6-isopropyl-4H-pyrrolo[3,2-d]thiazol-2-yl)-3-methylpiperazin-1-yl)-N,N-dimethylacetamide], the IC50 is above 50 µM. Next, `CC(C)c1c(-c2cn(C)c3ncccc23)[nH]c2sc(C3CCN(C4COC4)CC3)nc12` [Example 34, 6-isopropyl-5-(1-methyl-1H-pyrrolo[2,3-b]pyridin-3-yl)-2-(1-(oxetan-3-yl)piperidin-4-yl)-4H-pyrrolo[3,2-d]thiazole]: above 50 µM; `Cc1c(-c2[nH]c3sc(N4CCN(CCS(C)(=O)=O)C[C@@H]4C)nc3c2C(C)C)cn2ncnc2c1C` [Example 344, (S)-5-(7,8-dimethyl-[1,2,4]triazolo[1,5-a]pyridin-6-yl)-6-isopropyl-2-(2-methyl-4-(2-(methylsulfonyl)ethyl)piperazin-1-yl)-4H-pyrrolo[3,2-d]thiazole]: above 50 µM; `Cc1c(-c2[nH]c3sc(C(=O)NCCCN4CCCC4=O)nc3c2C(C)C)cn2ncnc2c1C` [Example 371, 5-(7,8-dimethyl-[1,2,4]triazolo[1,5-a]pyridin-6-yl)-6-isopropyl-N-(3-(2-oxopyrrolidin-1-yl)propyl)-4H-pyrrolo[3,2-d]thiazole-2-carboxamide]: above 50 µM. Next, `Cc1c(-c2[nH]c3sc(CN4CC5(COC5)C4)nc3c2C(C)C)cn2ncnc2c1C` [Example 408, 6-((5-(7,8-dimethyl-[1,2,4]triazolo[1,5-a]pyridin-6-yl)-6-isopropyl-4H-pyrrolo[3,2-d]thiazol-2-yl)methyl)-2-oxa-6-azaspiro[3.3]heptane]: above 50 µM; `Cc1c(-c2[nH]c3sc(C(=O)N4CCN(S(C)(=O)=O)CC4)nc3c2C(C)C)cn2ncnc2c1C` [Example 384, (5-(7,8-dimethyl-[1,2,4]triazolo[1,5-a]pyridin-6-yl)-6-isopropyl-4H-pyrrolo[3,2-d]thiazol-2-yl)(4-(methylsulfonyl)piperazin-1-yl) methanone]: above 50 µM. `Cc1cc(-c2[nH]c3sc(C(=O)NCC4(S(C)(=O)=O)CC4)nc3c2C(C)C)cn2ncnc12` [Example 399, 6-isopropyl-5-(8-methyl-[1,2,4]triazolo[1,5-a]pyridin-6-yl)-N-((1-(methylsulfonyl)cyclopropyl)methyl)-4H-pyrrolo[3,2-d]thiazole-2-carboxamide]: the IC50 was above 50 µM. As for `Cc1c(-c2[nH]c3sc(N4CC5(CN(CC6CCOCC6)C5)C4)nc3c2C(C)C)cn(C)c(=O)c1C` [Example 307, 5-(6-isopropyl-2-(6-((tetrahydro-2H-pyran-4-yl)methyl)-2,6-diazaspiro[3.3]heptan-2-yl)-4H-pyrrolo[3,2-d]thiazol-5-yl)-1,3,4-trimethylpyridin-2 (1H)-one], the IC50 was above 50 µM. `Cc1c(-c2[nH]c3sc(C(=O)N4CCCC4)nc3c2C(C)C)cn2ncnc2c1C` [Example 377, (5-(7,8-dimethyl-[1,2,4]triazolo[1,5-a]pyridin-6-yl)-6-isopropyl-4H-pyrrolo[3,2-d]thiazol-2-yl)(pyrrolidin-1-yl)methanone] had an IC50 above 50 µM. For the compound `Cc1c(-c2[nH]c3sc(N4CC5(CN(CCS(C)(=O)=O)C5)C4)nc3c2C(C)C)cn(C)c(=O)c1C` [Example 305, 5-(6-isopropyl-2-(6-(2-(methylsulfonyl)ethyl)-2,6-diazaspiro[3.3]heptan-2-yl)-4H-pyrrolo[3,2-d]thiazol-5-yl)-1,3,4-trimethylpyridin-2 (1H)-one], the IC50 was above 50 µM.

For the compound `Cc1c(-c2[nH]c3sc(N4CCN(C5COC5)C[C@@H]4C)nc3c2C(C)C)cn2ncnc2c1C` [Example 348, (S)-5-(7,8-dimethyl-[1,2,4]triazolo[1,5-a]pyridin-6-yl)-6-isopropyl-2-(2-methyl-4-(oxetan-3-yl)piperazin-1-yl)-4H-pyrrolo[3,2-d]thiazole], the IC50 was above 50 µM. With `Cc1cc(-c2[nH]c3sc(C(=O)N4CCCOCC4)nc3c2C(C)C)cn2ncnc12` [Example 394, (6-isopropyl-5-(8-methyl-[1,2,4]triazolo[1,5-a]pyridin-6-yl)-4H-pyrrolo[3,2-d]thiazol-2-yl)(1,4-oxazepan-4-yl)methanone], the IC50 is above 50 µM.

The compound `CC(C)c1c(-c2cn(C)c3ncccc23)[nH]c2sc(C3CCN(CCS(C)(=O)=O)CC3)nc12` [Example 33, 6-isopropyl-5-(1-methyl-1H-pyrrolo[2,3-b]pyridin-3-yl)-2-(1-(2-(methylsulfonyl)ethyl)piperidin-4-yl)-4H-pyrrolo[3,2-d]thiazole] showed an IC50 above 50 µM. `Cc1c(-c2[nH]c3sc(CNCC(N)=O)nc3c2C(C)C)cn2ncnc2c1C` [Example 402, 2-(((5-(7,8-dimethyl-[1,2,4]triazolo[1,5-a]pyridin-6-yl)-6-isopropyl-4H-pyrrolo[3,2-d]thiazol-2-yl)methyl)amino)acetamide] showed an IC50 above 50 µM. Take `Cc1c(-c2[nH]c3sc(C(=O)N4CCNC(=O)C4)nc3c2C(C)C)cn2ncnc2c1C` [Example 378, 4-(5-(7,8-dimethyl-[1,2,4]triazolo[1,5-a]pyridin-6-yl)-6-isopropyl-4H-pyrrolo[3,2-d]thiazole-2-carbonyl)piperazin-2-one]: the IC50 was above 50 µM. As to `Cc1c(-c2[nH]c3sc(N4CCN(C(=O)C5CCS(=O)(=O)CC5)C[C@@H]4C)nc3c2C(C)C)cn2ncnc2c1C` [Example 347, (S)-(4-(5-(7,8-dimethyl-[1,2,4]triazolo[1,5-a]pyridin-6-yl)-6-isopropyl-4H-pyrrolo[3,2-d]thiazol-2-yl)-3-methylpiperazin-1-yl)(1,1-dioxidotetrahydro-2H-thiopyran-4-yl)methanone], the IC50 is above 50 µM.
